Reference: patent US12187713B2, “Immunomodulators, compositions and methods thereof” (Betta Pharmaceuticals Co., Ltd, priority 2019, dated 2025)
pIC50: −log10 of the molar value.

Experiments:
[1] = Pharmacokinetic Assay, single oral dose 100 mg/kg (Table 11); assay type: in vivo; conditions: mouse, C57 female mice, oral (intragastric), plasma
Protocol: Adult C57 female mice were received to single-dose of the test compounds with […], 10% Kolliphor^@HS 15 and 80% saline as excipients, the mice (n=9) were giving oral administration (intragastric administration) with the compounds at a dose of 100 mg/kg. Time of blood collection: 15 min, 30 min, 1 h, 2 h, 4 h, 7 h, 24 h. Approximately 0.1 mL of whole blood was collected from retro-orbital venous plexus of 3 mice at each time point, and placed into tubes that contained K2-EDTA as an anticoagulant. The whole blood was centrifuged at 4° C. and 4000 rpm for 10 min. The plasma was transferred into centrifuge tubes, and stored at −20° C. until being analyzed. Concentrations of test compounds in the plasma samples were analyzed with liquid chromatography-tandem mass spectrometry (LC-MS/MS). Plasma concentration-time data of individual animals was analyzed using Microsoft Excel 2010. Non-compartmental model was introduced in concentration analysis. The pharmacokinetic parameters of the test compounds were calculated using WinNonlin (version 4.1; Pharsight) software.

PD-1/PD-L1 = PD-1/PD-L1 (Homo sapiens (Human), UniProt Q9NZQ7); experiment: PD-1/PD-L1 Binding Assay (Alphascreen)
Summary of the method: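 PD-1/PD-L1 binding detected by anti-6×His acceptor and streptavidin donor beads after 120 min in the dark at 25 °C. Beforehand, the two proteins were incubated 15 min at 25 °C with inhibitor at 0.015–300 nM (1% DMSO). IC50 comes from a log concentration–response curve.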

[2] = Pharmacokinetic Assay, single oral dose 5 mg/kg (Table 12); assay type: in vivo; conditions: mouse, plasma concentration, C57 female mice, single oral dose 5 mg/kg
Summary of the method: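 Adult female C57 mice (n=3) got one intragastric dose of 5 mg/kg in 15% DMSO, 10% Kolliphor HS 15, 75% saline. Retro-orbital blood was taken at 30 min, 2 h and 4 h into K2-EDTA. Plasma levels were measured by LC-MS/MS.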

Chain of PD-1/PD-L1 (Q9NZQ7 19-238): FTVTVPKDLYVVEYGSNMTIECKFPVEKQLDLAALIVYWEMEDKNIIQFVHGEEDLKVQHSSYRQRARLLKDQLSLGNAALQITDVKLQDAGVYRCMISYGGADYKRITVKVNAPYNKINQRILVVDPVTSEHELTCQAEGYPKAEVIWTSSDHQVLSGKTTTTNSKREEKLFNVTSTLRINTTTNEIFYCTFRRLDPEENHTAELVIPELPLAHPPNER

Compound	AUC [1] [µg·h/mL]	Cmax [1] [ng/mL]	Tmax [1] [h]	half-life [1] [h]	pIC50 (PD-1/PD-L1; numeric values)	concentration at 0.5 h ([2]; 0.5 h) [ng/mL]	concentration at 2 h ([2]; 2 h) [ng/mL]	concentration at 4 h ([2]; 4 h) [ng/mL]	pIC50 (PD-1/PD-L1; range symbols)
Cc1c(-c2nc3cc(CN4CC(C)(C)C4)c(OC(F)F)cc3o2)cccc1-c1cccc(-c2nc3cc(CN4CCC[C@H]4C(=O)O)c(OC(F)F)cc3o2)c1C [Example 34, ((6-(difluoromethoxy)-2-(3′-(6-(difluoromethoxy)-5-((3,3-dimethylazetidin-1-yl)methyl)benzo[d]oxazol-2-yl)-2,2′-dimethyl-[1,1′-biphenyl]-3-yl)benzo[d]oxazol-5-yl)methyl)-L-proline]	56.1	4260	4	6.99	8.89	46.8	136	154	
Cc1c(-c2nc3cc(CN4CCC[C@H]4C(=O)O)c(OC(F)F)cc3o2)cccc1-c1cccc(-c2nc3cc(CN4CCC(C)C4)cc(C(F)(F)F)c3o2)c1C (stereo partly drawn) [Example 88, ((6-(difluoromethoxy)-2-(2,2′-dimethyl-3′-(5-((3-methylpyrrolidin-1-yl)methyl)-7-(trifluoromethyl)benzo[d]oxazol-2-yl)-[1,1′-biphenyl]-3-yl)benzo[d]oxazol-5-yl)methyl)-L-proline]	2020	117000	24						8.30 to 10.00
Cc1c(-c2nc3cc(CN4CCC[C@H]4C(=O)O)c(OC(F)F)cc3o2)cccc1-c1cccc(-c2nc3cc(CN4CC(C)(C)C4)cc(C(F)(F)F)c3o2)c1C [Example 93, ((6-(difluoromethoxy)-2-(3′-(5-((3,3-dimethylazetidin-1-yl)methyl)-7-(trifluoromethyl)benzo[d]oxazol-2-yl)-2,2′-dimethyl-[1,1′-biphenyl]-3-yl)benzo[d]oxazol-5-yl)methyl)-L-proline]	163	9220	4						8.30 to 10.00
Cc1c(-c2nc3cc(CN4CCC[C@H]4C(=O)O)c(OC(F)F)cc3o2)cccc1-c1cccc(-c2nc3cc(CN4CCCC4)cc(F)c3o2)c1C [Example 95, ((6-(difluoromethoxy)-2-(3′-(7-fluoro-5-(pyrrolidin-1-ylmethyl)benzo[d]oxazol-2-yl)-2,2′-dimethyl-[1,1′-biphenyl]-3-yl)benzo[d]oxazol-5-yl)methyl)-L-proline]	22.9	2030	4	6.48	8.85				
Cc1c(-c2nc3cc(CN4CCCC4)ccc3o2)cccc1-c1cccc(-c2nc3cc(CN4CCC[C@H]4C(=O)O)c(OC(F)F)cc3o2)c1C [Example 98, ((6-(difluoromethoxy)-2-(2,2′-dimethyl-3′-(5-(pyrrolidin-1-ylmethyl)benzo[d]oxazol-2-yl)-[1,1′-biphenyl]-3-yl)benzo[d]oxazol-5-yl)methyl)-L-proline]	8.7	1010	1	4.47					8.30 to 10.00
Cc1c(-c2nc3cc(CN4CCC[C@H]4C(=O)O)c(OC(F)F)cc3o2)cccc1-c1cccc(-c2nc3cc(CN4CCCC4)cc(C(F)(F)F)c3o2)c1C [Example 100, ((6-(difluoromethoxy)-2-(2,2′-dimethyl-3′-(5-(pyrrolidin-1-ylmethyl)-7-(trifluoromethyl)benzo[d]oxazol-2-yl)-[1,1′-biphenyl]-3-yl)benzo[d]oxazol-5-yl)methyl)-L-proline]	235	18900	4	10.5					8.30 to 10.00
Cc1c(-c2nc3ccc(CN4CCCC4)cc3o2)cccc1-c1cccc(-c2nc3cc(CN4CCC[C@H]4C(=O)O)c(OC(F)F)cc3o2)c1C [Example 108, ((6-(difluoromethoxy)-2-(2,2′-dimethyl-3′-(6-(pyrrolidin-1-ylmethyl)benzo[d]oxazol-2-yl)-[1,1′-biphenyl]-3-yl)benzo[d]oxazol-5-yl)methyl)-L-proline]	10.1	713	1	21.7					8.30 to 10.00
Cc1c(Nc2nccc3cc(CN4CCC[C@@]4(C)C(=O)O)cnc23)cccc1-c1cccc(-c2nc3cc(CN4CCC[C@H]4C(=O)O)c(OC(F)F)cc3o2)c1C [Example 171, (S)-1-((8-((3′-(5-(((S)-2-carboxypyrrolidin-1-yl)methyl)-6-(difluoromethoxy)benzo[d]oxazol-2-yl)-2,2′-dimethyl-[1,1′-biphenyl]-3-yl)amino)-1,7-naphthyridin-3-yl)methyl)-2-methylpyrrolidine-2-carboxylic acid]	3.47	965	1	3.66					8.30 to 10.00
Cc1c(Nc2nccc3cc(CN4CCC(O)C4)cnc23)cccc1-c1cccc(-c2nc3cc(CN4CCC[C@H]4C(=O)O)c(OC(F)F)cc3o2)c1C (stereo partly drawn) [Example 175, ((6-(difluoromethoxy)-2-(3′-((3-((3-hydroxypyrrolidin-1-yl)methyl)-1,7-naphthyridin-8-yl)amino)-2,2′-dimethyl-[1,1′-biphenyl]-3-yl)benzo[d]oxazol-5-yl)methyl)-L-proline]	19.9	1630	2	3.63	8.47				

Now from value to molecule:

AUC [1] [µg·h/mL]	Cmax [1] [ng/mL]	Tmax [1] [h]	half-life [1] [h]	pIC50 (PD-1/PD-L1; numeric values)	concentration at 0.5 h ([2]; 0.5 h) [ng/mL]	concentration at 2 h ([2]; 2 h) [ng/mL]	concentration at 4 h ([2]; 4 h) [ng/mL]	pIC50 (PD-1/PD-L1; range symbols)	Compound
8.57	1280	1	3.57	9.70					Cc1c(-c2nc3c(o2)CCNC3)cccc1-c1cccc(-c2nc3cc(CN4CCC[C@H]4C(=O)O)c(OC(F)F)cc3o2)c1C [Example 190, ((6-(difluoromethoxy)-2-(2,2′-dimethyl-3′-(4,5,6,7-tetrahydrooxazolo[4,5-c]pyridin-2-yl)-[1,1′-biphenyl]-3-yl)benzo[d]oxazol-5-yl)methyl)-L-proline]
67.4	4890	1	6.93	8.60					Cc1c(-c2ccc(CN3CCCC3)c(F)c2)cccc1-c1cccc(-c2nc3cc(CN4CCC[C@H]4C(=O)O)c(OC(F)F)cc3o2)c1C [Example 243, ((6-(difluoromethoxy)-2-(3″-fluoro-2,2′-dimethyl-4″-(pyrrolidin-1-ylmethyl)-[1,1′:3′,1″-terphenyl]-3-yl)benzo[d]oxazol-5-yl)methyl)-L-proline]
78.1	5740	2	7.01	8.70					Cc1c(-c2ccc(CN3CCCC3)c(OC(F)F)c2)cccc1-c1cccc(-c2nc3cc(CN4CCC[C@H]4C(=O)O)c(OC(F)F)cc3o2)c1C [Example 244, ((6-(difluoromethoxy)-2-(3″-(difluoromethoxy)-2,2′-dimethyl-4″-(pyrrolidin-1-ylmethyl)-[1,1′:3′,1″-terphenyl]-3-yl)benzo[d]oxazol-5-yl)methyl)-L-proline]
29	6350	2	5.43	8.10					Cc1c(-c2nc3c(o2)CCN(C)C3)cccc1-c1cccc(-c2nc3cc(CN4CCC[C@H]4C(=O)O)c(OC(F)F)cc3o2)c1C [Example 314, ((6-(difluoromethoxy)-2-(2,2′-dimethyl-3′-(5-methyl-4,5,6,7-tetrahydrooxazolo[4,5-c]pyridin-2-yl)-[1,1′-biphenyl]-3-yl)benzo[d]oxazol-5-yl)methyl)-L-proline]
